Reference: article PMC3758437 (Kidney international, 2013)
Where a name gives a salt, the structure may show the parent alone. Read-outs that look alike come from different tables or passages of the source.

Columns and labels:
[1] = system: plasma proteins; assay type: in vitro ADME; details: human, plasma (ultrafiltration)
[2] = normal subjects; LC/MS/MS assay; mean±sd
[3] = system: plasma proteins; test: Free fraction by stable isotope dilution LC/MS/MS assay; details: human, plasma (ultrafiltration)

| Compound | fraction unbound [1] | Plasma Free Concentration [2] | fraction unbound [3] |
| --- | --- | --- | --- |
| Cn1c(=O)c2c([nH]c(=O)n2C)n(C)c1=O [1,3,7-Trimethyluric acid] | 0.09 ± 0.03 |  |  |
| Cn1c(=O)[nH]c2[nH]c(=O)n(C)c2c1=O [1,7-Dimethyluric acid] | 0.39 ± 0.3 |  |  |
| O=C(O)CNC(=O)c1ccco1 [2-Furoylglycine] | 0.49 |  |  |
| O=C(O)CCCCC(=O)O [Adipic acid] | 0.04 ± 0.01 |  |  |
| CN1CC(=O)NC1=N [Creatinine] |  | 74 ± 13 µM |  |
| Cc1ccc(OS(=O)(=O)O)cc1 [p-Cresol sulfate] |  | 0.46 ± 0.26 µM |  |

The next lines start with the values.

| fraction unbound [1] | Plasma Free Concentration [2] | fraction unbound [3] | Compound |
| --- | --- | --- | --- |
| 0.27 ± 0.05 | 1.5 ± 0.9 µM | 0.41 ± 0.02 | O=C(O)CNC(=O)c1ccccc1 [Hippurate] |
| 0.02 ± 0.01 | 0.13 ± 0.05 µM | 0.027 ± 0.004 | O=S(=O)(O)Oc1c[nH]c2ccccc12 [Indoxyl sulfate] |
| 0.11 ± 0.04 |  |  | CC(CC(=O)O)C(=O)O (stereo not drawn) [Methylsuccinic acid] |
| 0.07 ± 0.02 |  |  | O=C(O)CCCCCCC(=O)O [Suberic acid] |
|  | 2.4 ± 0.6×10^3 μM |  | NC(N)=O [Urea] |
